Results reported in patent US11584747B2, “Substituted pyridopyrimidinonyl compounds useful as T cell activators” (BRISTOL-MYERS SQUIBB COMPANY, priority 2019, dated 2023).
Read-outs that look alike come from different tables or passages of the source.

What was measured:
human DGKζ = human DGKζ (Homo sapiens (Human), UniProt Q13574); test: DGKζ LIPGLO assay (extruded liposome substrate, ADP-Glo luminescence); format: biochemical; conditions: liposome assay; read-out: DGK zeta LIPGLO IC50
whole blood (pERK) = test: pERK Whole Blood assay (Table A; no whole-blood pERK method described); format: cell-based; conditions: normalized
human DGKα [1] = molecular target: T1, human DGKα (Homo sapiens (Human), UniProt P23743); test: DGKα ADPGLO assay (detergent/lipid micelle substrate); format: biochemical; conditions: truncated DGK alpha; read-out: DGK alpha ADPGLO (Truncated) IC50
T1 sequence (P23743 whole entry, looked up, the tested form may be a part): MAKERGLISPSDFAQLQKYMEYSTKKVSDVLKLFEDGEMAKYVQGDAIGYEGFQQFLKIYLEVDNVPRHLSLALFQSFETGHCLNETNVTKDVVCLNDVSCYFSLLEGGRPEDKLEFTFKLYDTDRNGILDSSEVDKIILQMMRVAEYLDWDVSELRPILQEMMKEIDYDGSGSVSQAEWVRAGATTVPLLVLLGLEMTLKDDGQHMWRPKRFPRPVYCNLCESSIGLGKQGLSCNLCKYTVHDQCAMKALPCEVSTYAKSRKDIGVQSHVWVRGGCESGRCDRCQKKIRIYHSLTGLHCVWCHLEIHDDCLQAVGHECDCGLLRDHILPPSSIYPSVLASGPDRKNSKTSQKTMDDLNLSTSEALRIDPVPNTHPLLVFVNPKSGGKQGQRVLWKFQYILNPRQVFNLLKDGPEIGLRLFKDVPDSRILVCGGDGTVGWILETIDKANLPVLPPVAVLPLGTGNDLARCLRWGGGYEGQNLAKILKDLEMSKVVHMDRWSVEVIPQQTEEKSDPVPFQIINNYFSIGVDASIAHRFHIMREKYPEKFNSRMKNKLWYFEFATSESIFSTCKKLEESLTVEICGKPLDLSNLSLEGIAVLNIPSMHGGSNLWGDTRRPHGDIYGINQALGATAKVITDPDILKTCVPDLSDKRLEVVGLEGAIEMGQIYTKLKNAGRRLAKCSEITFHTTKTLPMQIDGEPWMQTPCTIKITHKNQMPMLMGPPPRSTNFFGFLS
Description: DGK Alpha ADPGLO (Truncated) IC50 (uM)
The detergent/lipid micelle was prepared by combining 15 g phosphatidylserine (Avanti 840035P) and 1 g diacylglycerol (8008110) and dissolving into 150 mL chloroform in a 2 L round bottom flask. Chloroform was removed under high vacuum by rotary evaporation. […] The lipid/detergent solution was split into 5 mL aliquots and stored at −80° C.

[2] = test system: human venous whole blood (IFN-γ); test: Human whole blood IFN-γ assay; format: cell-based; conditions: whole blood, normalized to 3 μM reference compound as 100% activation, read-out: IFN-γ Whole Blood Normalized EC50
Description: Human venous whole blood (22.5 μL per well), obtained from healthy donors, was pre-treated with compounds for one hour at 37° C. in a humidified 95% air/5% CO2 incubator. The blood was stimulated with 2.5 μL anti-human CD3 and anti-CD28 mAb at a final concentration of 1 μg/mL each for 24 hours at 37° C. IFN-γ in the supernatants was measured using AlphLISA kit (Cat #AL217).

human DGKα [3] = molecular target: T1, human DGKα; test: DGKα LIPGLO assay (extruded liposome substrate, ADP-Glo luminescence); format: biochemical; conditions: liposome assay; read-out: DGK alpha LIPGLO IC50

Sequence of human DGKζ (Q13574 other isoform, or with tags, fused parts or gaps): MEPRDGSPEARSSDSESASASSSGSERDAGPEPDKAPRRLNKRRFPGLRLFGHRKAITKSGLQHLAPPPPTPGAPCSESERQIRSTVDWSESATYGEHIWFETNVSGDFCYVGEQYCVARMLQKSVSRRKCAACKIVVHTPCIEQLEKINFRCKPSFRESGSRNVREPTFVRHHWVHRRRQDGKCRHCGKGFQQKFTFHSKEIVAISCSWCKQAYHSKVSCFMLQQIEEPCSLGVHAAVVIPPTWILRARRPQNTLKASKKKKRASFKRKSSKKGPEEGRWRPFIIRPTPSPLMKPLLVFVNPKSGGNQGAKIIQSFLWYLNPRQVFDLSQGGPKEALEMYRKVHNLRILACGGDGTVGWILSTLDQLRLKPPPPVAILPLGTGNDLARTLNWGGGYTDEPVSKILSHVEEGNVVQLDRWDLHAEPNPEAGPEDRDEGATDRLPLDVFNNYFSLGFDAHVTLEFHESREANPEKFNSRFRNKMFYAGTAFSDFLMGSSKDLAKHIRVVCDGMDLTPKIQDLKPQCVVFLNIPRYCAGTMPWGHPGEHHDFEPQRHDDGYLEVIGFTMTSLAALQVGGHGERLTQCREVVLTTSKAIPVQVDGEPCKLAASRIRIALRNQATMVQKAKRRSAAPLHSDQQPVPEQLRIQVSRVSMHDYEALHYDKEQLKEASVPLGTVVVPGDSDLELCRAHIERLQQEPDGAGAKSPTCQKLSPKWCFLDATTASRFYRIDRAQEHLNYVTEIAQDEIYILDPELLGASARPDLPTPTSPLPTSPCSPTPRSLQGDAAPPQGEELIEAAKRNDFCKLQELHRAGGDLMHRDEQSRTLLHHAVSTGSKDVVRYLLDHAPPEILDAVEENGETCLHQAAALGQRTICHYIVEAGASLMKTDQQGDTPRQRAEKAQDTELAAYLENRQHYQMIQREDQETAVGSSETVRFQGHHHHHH

CC[C@H]1CN(C(c2ccc(OC)cc2)C(C)C)[C@H](CC)CN1c1nc(=O)n(C)c2ccc(C#N)nc12 (stereo partly drawn) [Example 249, 4-((2S,5R)-2,5-diethyl-4-(1-(4-methoxyphenyl)-2-methylpropyl)piperazin-1-yl)-1-methyl-2-oxo-1,2-dihydropyrido[3,2-d]pyrimidine-6-carbonitrile]
IC50 (human DGKζ): 40 nM
IC50 (whole blood (pERK)): 420 nM

CC[C@H]1CN(C(C)c2ccc(CN3CCC[C@@H](O)C3)cc2)[C@H](CC)CN1c1nc(=O)n(C)c2ccc(C#N)nc12 (stereo partly drawn) [Example 290, 4-((2S,5R)-2,5-diethyl-4-(1-(4-(((R)-3-hydroxypiperidin-1-yl)methyl)phenyl)ethyl)piperazin-1-yl)-1-methyl-2-oxo-1,2-dihydropyrido[3,2-d]pyrimidine-6-carbonitrile]
IC50 (human DGKα [1]): 1950 nM
IC50 (human DGKζ): 57200 nM
IC50 (whole blood (pERK)): 20000 nM

C[C@@H]1CN(c2nc(=O)n(C)c3ccc(C#N)nc23)[C@@H](C)CN1C(c1ccc(F)cc1)c1ccc(C(F)(F)F)cn1 (single isomer, unassigned) [Example 127]
EC50 ([2]; Homo sapiens): 410 nM
IC50 (whole blood (pERK)): 240 nM

CC[C@H]1CN(C(C)c2ccc(CN3CC4(COC4)C3)cc2)[C@H](CC)CN1c1nc(=O)n(C)c2ccc(C#N)nc12 (stereo partly drawn) [Example 279, 4-((2S,5R)-4-(1-(4-((2-oxa-6-azaspiro[3.3]heptan-6-yl)methyl)phenyl)ethyl)-2,5-diethylpiperazin-1-yl)-1-methyl-2-oxo-1,2-dihydropyrido[3,2-d]pyrimidine-6-carbonitrile]
IC50 (human DGKα [1]): 17000 nM
IC50 (human DGKζ): 62400 nM
IC50 (whole blood (pERK)): 2920 nM

CC[C@H]1CN(C(C)c2ccc(CN3CC4(COC4)C3)cc2)[C@H](CC)CN1c1nc(=O)n(C)c2ccc(C#N)nc12 (stereo partly drawn) [Example 280, 4-((2S,5R)-4-(1-(4-((2-oxa-6-azaspiro[3.3]heptan-6-yl)methyl)phenyl)ethyl)-2,5-diethylpiperazin-1-yl)-1-methyl-2-oxo-1,2-dihydropyrido[3,2-d]pyrimidine-6-carbonitrile]
IC50 (human DGKα [1]): 42700 nM
IC50 (human DGKζ): 125000 nM
IC50 (whole blood (pERK)): 150 nM

CCC(c1ccc(C(F)(F)F)cc1)N1C[C@H](CC)N(c2nc(=O)n(C)c3ccc(C#N)nc23)C[C@H]1CC (single isomer, unassigned) [Example 6]
IC50 (human DGKα [1]): 58 nM
IC50 (whole blood (pERK)): 6980 nM

CCC(c1ccc(C(C)(C)C#N)cc1)N1C[C@H](CC)N(c2nc(=O)n(C)c3ccc(C#N)nc23)C[C@H]1CC (stereo partly drawn) [Example 251, 4-((2S,5R)-4-(1-(4-(2-cyanopropan-2-yl)phenyl)propyl)-2,5-diethylpiperazin-1-yl)-1-methyl-2-oxo-1,2-dihydropyrido[3,2-d]pyrimidine-6-carbonitrile]
IC50 (human DGKα [1]): 34 nM
IC50 (human DGKζ): 18 nM
IC50 (whole blood (pERK)): 1580 nM

CCC(c1ccc(OC2CC2)cc1)N1C[C@H](CC)N(c2nc(=O)n(C)c3ccc(C#N)nc23)C[C@H]1CC (stereo partly drawn) [Example 256, 4-((2S,5R)-4-(1-(4-cyclopropoxyphenyl)propyl)-2,5-diethylpiperazin-1-yl)-1-methyl-2-oxo-1,2-dihydropyrido[3,2-d]pyrimidine-6-carbonitrile]
IC50 (human DGKα [1]): 1510 nM
IC50 (human DGKζ): 2940 nM
IC50 (whole blood (pERK)): 290 nM

CCC(c1ccc(C2CC2)cc1F)N1C[C@H](C)N(c2nc(=O)n(C)c3ccc(C#N)nc23)C[C@H]1CC (stereo partly drawn) [Example 302, 4-((2S,5R)-4-(1-(4-cyclopropyl-2-fluorophenyl)propyl)-5-ethyl-2-methylpiperazin-1-yl)-1-methyl-2-oxo-1,2-dihydropyrido[3,2-d]pyrimidine-6-carbonitrile]
IC50 (human DGKα [1]): 9 nM
IC50 (human DGKζ): 43 nM
IC50 (whole blood (pERK)): 34 nM

CC[C@@H]1CN(c2nc(=O)n(C)c3ccc(C#N)nc23)[C@@H](C)CN1C(c1ccc(Cl)cc1)c1ccccn1 (single isomer, unassigned) [Example 95]
EC50 [2]: 370 nM
IC50 (whole blood (pERK)): 10500 nM

CC[C@H]1CN(C(c2ccc(F)cc2)c2nc(C3CC3)no2)[C@H](CC)CN1c1nc(=O)n(C)c2ccc(C#N)nc12 (single isomer, unassigned) [Example 111]
EC50 [2]: 21 nM
IC50 (whole blood (pERK)): 90 nM

CC[C@H]1CN(C(c2ccc(OC(C)C)cc2)C(C)C)[C@H](CC)CN1c1nc(=O)n(C)c2ccc(C#N)nc12 (stereo partly drawn) [Example 262, 4-((2S,5R)-2,5-diethyl-4-(1-(4-isopropoxyphenyl)-2-methylpropyl)piperazin-1-yl)-1-methyl-2-oxo-1,2-dihydropyrido[3,2-d]pyrimidine-6-carbonitrile]
IC50 (whole blood (pERK)): 4150 nM

CCC(c1ccc(OC(C)C)cc1)N1C[C@H](CC)N(c2nc(=O)n(C)c3ccc(C#N)nc23)C[C@H]1CC (stereo partly drawn) [Example 234, 4-((2S,5R)-2,5-diethyl-4-(1-(4-isopropoxyphenyl)propyl)piperazin-1-yl)-1-methyl-2-oxo-1,2-dihydropyrido[3,2-d] pyrimidine-6-carbonitrile]
IC50 (human DGKα [1]): 36 nM
IC50 (human DGKζ): 59 nM
IC50 (whole blood (pERK)): 80 nM

CC[C@H]1CN(C(C)c2ccc(CN3C[C@@H](C)O[C@@H](C)C3)cc2)[C@H](CC)CN1c1nc(=O)n(C)c2ccc(C#N)nc12 (stereo partly drawn) [Example 291, 4-((2S,5R)-4-(1-(4-(((2S,6R)-2,6-dimethylmorpholino)methyl)phenyl)ethyl)-2,5-diethylpiperazin-1-yl)-1-methyl-2-oxo-1,2-dihydropyrido[3,2-d]pyrimidine-6-carbonitrile]
IC50 (human DGKα [1]): 110 nM
IC50 (human DGKζ): 430 nM
IC50 (whole blood (pERK)): 390 nM

CC[C@@H]1CN(c2nc(=O)n(C)c3ccc(C#N)nc23)[C@@H](C)CN1C(c1ccc(F)cc1)c1ccc(C(F)(F)F)cn1 (stereo partly drawn) [Example 46, 4-((2S,5R)-5-Ethyl-4((4-fluorophenyl)(5-(trifluoromethyl)pyridin-2-yl)methyl)-2-methylpiperazin-1-yl)-1-methyl-2-oxo-1,2-dihydropyrido[3,2-d]pyrimidine-6-carbonitrile]
EC50 ([2]; Homo sapiens): 73 nM
IC50 (whole blood (pERK)): 43 nM

CC[C@H]1CN(C(C)c2ccc(C(F)(F)F)cc2N2CCOCC2)[C@H](CC)CN1c1nc(=O)n(C)c2ccc(C#N)nc12 (stereo partly drawn) [Example 194, 4-((2S,5R)-2,5-diethyl-4-(1-(2-morpholino-4-(trifluoromethyl)phenyl)ethyl)piperazin-1-yl)-1-methyl-2-oxo-1,2-dihydropyrido[3,2-d]pyrimidine-6-carbonitrile]
IC50 (human DGKζ): 5250 nM
IC50 (whole blood (pERK)): 270 nM

CC[C@H]1CN(C(c2ccc(F)cc2)c2nc(C3CC3)no2)[C@H](CC)CN1c1nc(=O)n(C)c2ccc(C#N)nc12 (single isomer, unassigned) [Example 110]
EC50 [2]: 9 nM
IC50 (whole blood (pERK)): 15 nM

CC[C@H]1CN(C(c2ccc(OC(C)C)cc2)C(C)C)[C@H](CC)CN1c1nc(=O)n(C)c2ccc(C#N)nc12 (stereo partly drawn) [Example 261, 4-((2S,5R)-2,5-diethyl-4-(1-(4-isopropoxyphenyl)-2-methylpropyl)piperazin-1-yl)-1-methyl-2-oxo-1,2-dihydropyrido[3,2-d]pyrimidine-6-carbonitrile]
IC50 (human DGKα [1]): 170 nM
IC50 (human DGKζ): 17 nM
IC50 (whole blood (pERK)): 680 nM

CC[C@H]1CN(C(C)c2ccc(C(F)(F)F)cc2F)[C@H](CC)CN1c1nc(=O)n(C)c2ccc(C#N)nc12 (single isomer, unassigned) [Example 25]
EC50 [2]: 1250 nM
IC50 (human DGKα [1]): 330 nM
IC50 (human DGKα [3]): 1230 nM
IC50 (human DGKζ): 1340 nM

CC[C@H]1CN(C(C)c2ccc(CN3C[C@@H](C)O[C@@H](C)C3)cc2)[C@H](CC)CN1c1nc(=O)n(C)c2ccc(C#N)nc12 (stereo partly drawn) [Example 292, 4-((2S,5R)-4-(1-(4-(((2S,6R)-2,6-dimethylmorpholino)methyl)phenyl)ethyl)-2,5-diethylpiperazin-1-yl)-1-methyl-2-oxo-1,2-dihydropyrido[3,2-d]pyrimidine-6-carbonitrile]
IC50 (human DGKα [1]): 210 nM
IC50 (human DGKζ): 1010 nM
IC50 (whole blood (pERK)): 1100 nM

CC[C@@H]1CN(c2nc(=O)n(C)c3ccc(C#N)nc23)[C@@H](C)CN1C(c1ccc(F)cc1)c1ccc(C(F)(F)F)cn1 (single isomer, unassigned) [Example 47]
EC50 ([2]; Homo sapiens): 32 nM
IC50 (whole blood (pERK)): 20 nM

CCC(c1ccc(C(C)(C)C#N)cc1)N1C[C@H](CC)N(c2nc(=O)n(C)c3ccc(C#N)nc23)C[C@H]1CC (stereo partly drawn) [Example 252, 4-((2S,5R)-4-(1-(4-(2-cyanopropan-2-yl)phenyl)propyl)-2,5-diethylpiperazin-1-yl)-1-methyl-2-oxo-1,2-dihydropyrido[3,2-d]pyrimidine-6-carbonitrile]
IC50 (human DGKα [1]): 270 nM
IC50 (human DGKζ): 780 nM
IC50 (whole blood (pERK)): 4280 nM

CC[C@H]1CN(C(c2ccc(OC)cc2)C(C)C)[C@H](CC)CN1c1nc(=O)n(C)c2ccc(C#N)nc12 (stereo partly drawn) [Example 250, 4-((2S,5R)-2,5-diethyl-4-(1-(4-methoxyphenyl)-2-methylpropyl)piperazin-1-yl)-1-methyl-2-oxo-1,2-dihydropyrido[3,2-d]pyrimidine-6-carbonitrile]
IC50 (human DGKα [1]): 330 nM
IC50 (human DGKζ): 1150 nM
IC50 (whole blood (pERK)): 1800 nM

CCC(c1ccc(OC(F)(F)F)cc1F)N1C[C@H](C)N(c2nc(=O)n(C)c3ccc(C#N)nc23)C[C@H]1CC (single isomer, unassigned) [Example 86]
EC50 [2]: 1540 nM
IC50 (human DGKα [1]): 420 nM
IC50 (human DGKα [3]): 2940 nM
IC50 (human DGKζ): 2370 nM

CC[C@@H]1CN(c2nc(=O)n(C)c3ccc(C#N)nc23)[C@@H](C)CN1C(C)c1ccc(C(F)(F)F)cc1 (single isomer, unassigned) [Example 8]
IC50 (human DGKα [1]): 140 nM
IC50 (whole blood (pERK)): 180 nM
